These results are taken from US11466036B2, “Borate of azetidine derivative” (Chia Tai Tianqing Pharmaceutical Group Co., Ltd., priority 2018, dated 2022).

The test system of one data set is MM1.S cells. As to the kind of experiment: In vitro anti-proliferation experiment for MM1.S cells (CellTiter-Glo). Particulars: Homo sapiens, 48 h, 2 days incubation, 0.3 nM-2000 nM. It is filed as cell-based. As for the experimental part:
In Vitro Anti-Proliferation Experiment for MM1.S Cells
In this experiment, the effect of compounds on inhibiting cell proliferation was investigated by determining their effect on cell activity in vitro in the tumor cell line MM1.S.
MM1.S cells were seeded into a black 96-well cell culture plate at a density of 7,000 cells per well, and the plates were then incubated overnight in an incubator at 37° C., 5% CO2 and 100% relative humidity. Test compounds were added to the cell culture wells at a concentration (0.3 nM-2000 nM) and the plate was then put back into the incubator with vehicle control (DMSO added, no test compound) and blank control set. The plate was incubated for 2 days in an incubator at 37° C., 5% CO2 and 100% relative humidity. Samples were processed using a standard method of the Promega CellTiter-Glo luminescence cell activity detection kit (Promega-G7571) and luminescence signals were detected on a SpectraMax i3× of Molecular Devices plate reader. The inhibition rate of the test compound was calculated using the following formula: […]

A short description of data set [1]: Liver microsomal stability test, human. In kind it is in vitro ADME. Conditions: human (H) liver microsomes; read-out: Liver microsomal stability (T1/2, min). As for the experimental part: (§1) Experimental Example 2: Liver Microsomal Stability Test for Compounds
(§2) Test compounds were each co-incubated with liver microsomes from CD-1 mice, SD rats, and humans to evaluate the stability of the test compounds.
(§3) Preparation of test compound solution samples: a 10 mM DMSO solution of the example compound (5 μL) was added to a mixed solvent of DMSO (45 μL), methanol and water (450 μL, volume ratio of methanol and water was 1:1) to prepare a 100 μM test compound solution; 50 μL of the 100 μM test compound solution was added to 450 μL of 100 mM potassium phosphate buffer to give a 10 μM test compound solution.
(§4) The 10 μM test compound solution was preincubated with microsomes of three species (human, rat and mouse, respectively) for 10 minutes, and then reduced nicotinamide adenine dinucleotide phosphate (NADPH) regeneration system working solution was added to the incubation plate according to each time point to initiate the reaction, and finally at 0, 5, 10, 20, 30 and 60 minutes, stop solution (100% ACN) was added to the reaction plate to stop the reaction. The test compounds were determined using LC-MS/MS method.
In general terms: Liver microsomes are a subcellular fraction often used to study metabolism.

Data set [2] can be described thus: Liver microsomal stability test, mouse. Particulars: CD-1; mouse (M) liver microsomes; read-out: Liver microsomal stability (T1/2, min). It is filed as in vitro ADME, CD-1 mice. As for the experimental part:
as §1, §2, §3, §4

The nature of data set [3]: Liver microsomal stability test, rat. It is filed as in vitro ADME, SD rats. Particulars: SD; rat (R) liver microsomes; read-out: Liver microsomal stability (T1/2, min). As for the experimental part:
as §1, §2, §3, §4

The next data set deals with MDR1. Put plainly: Cell membrane permeability test on MDR1-MDCK II cells. In kind it is in vitro ADME. Particulars: dog; for efflux ratio at 150 min, 2 μM: MDCK-MDR1, pH 7.4, Papp B to A/Papp A to B; for Papp A→B at 150 min, 2 μM / Papp B→A at 150 min, 2 μM: MDCK-MDR1, pH=7.4. As for the experimental part: Experimental Example 3: Cell Membrane Permeability Test for Compounds
Test compounds were evaluated for cell membrane permeability on MDR1-MDCK II cells.
Test compounds (10 mM DMSO solution of compound) were each diluted with transfer buffer (HBSS with 10 mM Hepes, pH=7.4) and formulated into samples at a final concentration of 2 μM, and then bidirectional (A-B and B-A) administration was performed. After administration, the cell plate was incubated for 150 minutes in an incubator at 37° C., 5% CO2 and saturated humidity. After the 150 minutes of incubation, samples were collected and the concentrations of test compounds in the transfer samples were semi-quantitatively determined using LC-MS/MS method.

A short description of data set [4]: Stability experiment (solid sample in stability boxes, content by HPLC). It is filed as physicochemical. As for the experimental part:
Experimental Example 4: Stability Experiment
About 50 mg of a sample was placed in a clean disposable petri dish and spread into a thin layer. The petri dish was covered with aluminum foil paper which was pricked with several small holes. The sample, in duplicate, was placed in stability boxes of 25° C.±2° C./60% RH±5% RH and 40° C.±2° C./75% RH±5% RH, respectively, and sampled at the planned time points, and the content of the compound was determined using the HPLC method, and the results are shown in Table 9.

As a reminder, the IC50 is the concentration needed to halve the response being measured. A low value points to greater potency in that assay. For the molecule `CC(C)C[C@H](NC(=O)CNC(=O)[C@@H]1CCN1c1ccc(C#N)cc1F)B(O)O` (single isomer, unassigned) [Compound 3-7], the IC50 in the data set on MM1.S cells was determined as 90.6 nM.

As usually defined, the efflux ratio is a quotient of directional permeabilities that is used to spot active efflux. The term Papp A→B denotes how fast a substance crosses the layer from the apical side. In general, Papp B→A refers to the apparent permeability from the basolateral to the apical side of a cell layer. On to `CC(C)C[C@H](NC(=O)CNC(=O)[C@@H]1CCN1c1ccc(F)cc1F)B(O)O` (single isomer, unassigned) [Compound 4-9], for which the figures for the half-life in data set [1], in data set [2] and in data set [3] were 67.4 min, 67.4 min and 43.1 min, respectively. The molecule further gave an IC50 in the data set on MM1.S cells of 1 nM. In the data set on MDR1, the efflux ratio at 150 min, 2 μM is 19.3. Further, in the data set with MDR1, the Papp A→B at 150 min, 2 μM worked out at 0.38 ×10⁻⁶ cm/s. Further, the Papp B→A at 150 min, 2 μM with MDR1 worked out at 7.32 ×10⁻⁶ cm/s.

On to `CC(C)C[C@H](NC(=O)CNC(=O)[C@@H]1CCN1c1ccc(F)cc1)B(O)O` [Compound 1-9], for which the half-life in data set [1] came out at 74.3 min; in data set [2], 43.5 min; in data set [3] it was 42.1 min. This molecule also had an IC50 in the data set on MM1.S cells of 5.8 nM.

Molecule `CC(C)C[C@H](NC(=O)CNC(=O)[C@@H]1CCN1c1ncc(F)cc1F)B(O)O` [Compound 2-8] came in with a concentration for half-maximal inhibition (IC50) in the data set with MM1.S cells of 24 nM.

As for `CC(C)C[C@H](NC(=O)CNC(=O)[C@@H]1CCN1c1nc(C(F)(F)F)cs1)B(O)O` [Compound 2-9], the half-life in data set [1] was 75 min. Besides, in the data set with MM1.S cells, the IC50 worked out at 24.2 nM. Further, the half-life in data set [2] turned out to be 37.7 min. Further, the half-life in data set [3] is 26.5 min. Moreover, in the data set on MDR1, the efflux ratio at 150 min, 2 μM turned out to be 9.33; the Papp A→B at 150 min, 2 μM came to 0.24 ×10⁻⁶ cm/s; the Papp B→A at 150 min, 2 μM was 2.24 ×10⁻⁶ cm/s.

Take `CC(C)C[C@H](NC(=O)CNC(=O)[C@@H]1CCN1c1ccc(F)cc1F)B1OC(=O)[C@H](CC(=O)O)O1` [Compound I-1]: in the data set with MM1.S cells, the IC50 is 13 nM. For the same molecule, the “content of the compound” value is recorded as 98.6% in data set [4] (25° C./60% RH, Day 0); 97.8% in data set [4] (25° C./60% RH, Day 7); 100% in data set [4] (25° C./60% RH, Day 14); 100% in data set [4] (25° C./60% RH, Day 21); 100% in data set [4] (25° C./60% RH, Day 28); 98.6% in data set [4] (40° C./75% RH, Day 0). The “content of the compound” value in data set [4] (40° C./75% RH, Day 7) is on record as 99.1%; in data set [4] (40° C./75% RH, Day 14), 98.5%; in data set [4] (40° C./75% RH, Day 21), 100%; in data set [4] (40° C./75% RH, Day 28) it was 100%.
